From paper PMC7891399 (Journal of Clinical Pharmacology, 2020)
Where two headings read alike, the source gives them in different places. Marks after values point to notes of the source that are not given here.

Experiments:
[1] = assay type: in vivo, women; conditions: for AUC(0-t): female, human, plasma; for AUC0–24h Ratio Third Trimester/Postpartum GMR (90%CI) / Ctrough Ratio Third Trimester/Postpartum GMR (90%CI): paired data only
[2] = Combined PANNA and iTAP comparison of pregnancy effect on TFV exposure; assay type: in vivo; conditions: all groups of women (HIV with r/PI, HIV without r/PI, HBV monoinfection)
[3] = healthy subjects, fed state; ref registration package; cited from earlier work
[4] = assay type: in vivo, women
[5] = women with HBV, TDF monotherapy, paired data only

SMILES: C[C@H](Cn1cnc2c(N)ncnc21)OCP(=O)(O)O [TFV, tenofovir]
- AUC(0-t) ([1]; oral): 1.84 µg·h/mL
- AUC(0-t) ([1]; oral, AUC0–24h Postpartum GM (95%CI), women with HIV, all patients (n = 59), postpartum): 2.84 µg·h/mL
- AUC(0-t) ([1]; po): 1.86 µg·h/mL
- Ctrough Postpartum GM (95%CI) ([1]; women with HIV on non-r/PI (n = 27), postpartum): 0.056 (0.050–0.064) µg/mL
- Ctrough Third Trimester GM (95%CI) ([1]; women with HIV on non-r/PI (n = 27)): 0.038 (0.033–0.043) µg/mL
- AUC0–24h Ratio Third Trimester/Postpartum GMR (90%CI) ([1]; women with HIV on non-r/PI): 0.74 (0.68–0.82)
- Ctrough Ratio Third Trimester/Postpartum GMR (90%CI) ([1]; women with HIV on non-r/PI): 0.68 (0.62–0.75)
- Ctrough decrease by pregnancy, on average ([1]; women with HIV on non-r/PI-based regimens): 32%
- AUC0–24h lower during the third trimester compared to 1 month postpartum ([1]; women with HIV on non-r/PI-based regimens, intraindividual): 26%
- Ctrough Postpartum GM (95%CI) ([1]; women with HIV on r/PI (n = 32), postpartum): 0.063 (0.053–0.075) µg/mL
- Ctrough Third Trimester GM (95%CI) ([1]; women with HIV on r/PI (n = 32)): 0.048 (0.043–0.054) ^b , ^c µg/mL
- AUC0–24h Ratio Third Trimester/Postpartum GMR (90%CI) ([1]; women with HIV on r/PI): 0.76 (0.69–0.83)
- Ctrough Ratio Third Trimester/Postpartum GMR (90%CI) ([1]; women with HIV on r/PI): 0.81 (0.69–0.94)
- Ctrough decrease by pregnancy, on average ([1]; women with HIV on r/PI-based regimens): 19%
- Ctrough Postpartum GM (95%CI) ([1]; women with HIV, all patients (n = 59), postpartum): 0.059 (0.053–0.066) µg/mL
- Ctrough Third Trimester GM (95%CI) ([1]; women with HIV, all patients (n = 59)): 0.043 (0.039–0.047) µg/mL
- AUC0–24h Ratio Third Trimester/Postpartum GMR (90%CI) ([1]; women with HIV, all patients): 0.75 (0.70–0.80)
- Ctrough Ratio Third Trimester/Postpartum GMR (90%CI) ([1]; women with HIV, all patients): 0.74 (0.67–0.81)
- TFV exposure decrease during the third trimester of pregnancy [2]: approximately 25%
- mean AUC0–24h [3]: 2.46 ± 0.83 µg·h/mL
- AUC(0-t) ([4]; female, human, plasma, po): 2.35 µg·h/mL
- Ctrough decrease by pregnancy, on average ([4]; women with HBV): 31%
- AUC0–24h lower during the third trimester compared to 1 month postpartum ([4]; women with HBV receiving TDF monotherapy, intraindividual): 21%
- Ctrough Postpartum GM (95%CI) ([4]; women with HBV, TDF monotherapy (n = 137), 1 month postpartum): 0.058 (0.055–0.061) µg/mL
- Ctrough Third Trimester GM (95%CI) ([4]; women with HBV, TDF monotherapy (n = 137), third trimester (32 weeks)): 0.039 (0.038–0.042) µg/mL
- AUC0–24h Ratio Third Trimester/Postpartum GMR (90%CI) [4, 5]: 0.79 (0.78–0.80)
- Ctrough Ratio Third Trimester/Postpartum GMR (90%CI) [4, 5]: 0.69 (0.68–0.71)
